Key:
Assay type in all cases: cell-based
[1] = tested on: uveal melanoma cell lines 92-1 and MP41; experiment: Comparison of Compound B with clinical PKC and MEK inhibitors in uveal melanoma cell lines (3 day growth); conditions: vs LXS196 and Selumetinib
Experimental: Procedure: Uveal melanoma cell lines, 92-1 or MP41, were plated in 96 well plates in the presence of growth media (see Table 9). BAF ATPase inhibitor (Compound B), PKC inhibitor (LXS196; MedChemExpress), and MEK inhibitor (Selumetinib; Selleck Chemicals) were dissolved in DMSO and added to the cells in a concentration gradient from 0 to 10 micromolar at the time of plating. Cells were incubated at 37° C. for 3 days. After three days of treatment, cell growth was measured with Cell-titer glow (Promega), and luminescence was read on an Envision plate reader (Perkin Elmer).

[2] = tested on: parental MP41 and PKCi-resistant MP41 uveal melanoma cells; experiment: 7-day growth inhibition assay in parental and PKC inhibitor-resistant MP41 cells
Experimental: Procedure: MP41 uveal melanoma cells were made resistant to the PKC inhibitor (LXS196; MedChemExpress), by long-term culture in growth media (see Table 9) containing increasing concentrations of the compound, up to 1 micromolar. After 3 months, sensitivity of the parental MP41 cells and the PKC inhibitor (PKCi)-resistant cells to the PKC inhibitor (LXS196) or the BRG1/BRM ATPase inhibitor (Compound B) was tested in a 7-day growth inhibition assay as described above in Example 6.

[3] = tested on: uveal melanoma, hematologic cancer, prostate cancer, breast cancer and Ewing's sarcoma cell lines versus other tested cell lines; experiment: Growth of uveal melanoma, hematological, prostate, breast cancer and Ewing's sarcoma cell lines with Compound B (day 3 and day 7)
Experimental: Procedure: Uveal melanoma cell lines (92-1, MP41, MP38, MP46), prostate cancer cell lines (LNCAP), lung cancer cell lines (NCI-H1299), and immortalized embryonic kidney lines (HEK293T) were plated into 96 well plates with growth media (see Table 9). […] Cells were incubated at 37 degrees Celsius for 3 days. After three days of treatment, the media was removed from the cells and 30 microliters of TrypLE (Gibco) was added to cells for 10 minutes. Cells were detached from the plates and resuspended with the addition of 170 microliters of growth media. Cells from two DMSO-treated control wells were counted, and the initial number of cells plated at the start of the experiment, were re-plated into fresh-compound containing plates for an additional four days at 37 degrees Celsius. At day 7, cells were harvested as described above. On day 3 and day 7, relative cell growth was measured by the addition of Cell-titer glo (Promega) and luminescence was measured on an Envision plate reader (Perkin Elmer). […] At the time of cell splitting on days 3 and 7, cells were split into new 96 well plates, and fresh compound was added four hours after re-plating.
Procedure: All cell lines described above in Example 4 were also tested as described above with Compound B. In addition, the following cell lines were also tested as follows. […]

[4] = tested on: uveal melanoma cell lines (92-1, MP41, MP38, MP46); experiment: Growth of uveal melanoma and non-small cell lung cancer cell lines (3 day, Cell-titer glow); conditions: 3 days; 0 to 10 micromolar; FIG. 5
Experimental: Procedure: Uveal melanoma cell lines (92-1, MP41, MP38, MP46) and Non-small cell lung cancer cells (NCIH1299) were plated into 96 well plates with growth media (see Table 9). BRG1/BRM ATPase inhibitor, compound 67, was dissolved in DMSO and added to the cells in a concentration gradient from 0 to 10 micromolar at the time of plating. Cells were incubated at 37° C. for 3 days. After three days of treatment, cell growth was measured with Cell-titer glow (Promega), and luminescence was read on an Envision plate reader (Perkin Elmer).

Which results are given for `CSCC[C@H](NC(=O)c1ccn(S(C)(=O)=O)c1)C(=O)Nc1nc(-c2cccc(-c3ccncc3)c2)cs1` [Compound B, (S)-1-(methylsulfonyl)-N-(4-(methylthio)-1-oxo-1-((4-(3-(pyridin-4-yl)phenyl)thiazol-2-yl)amino)butan-2-yl)-1H-pyrrole-3-carboxamide]?
growth inhibition compared with clinical PKC and MEK inhibitors ([1]; 3 days, FIG. 6A, 6B): more potent effects on growth inhibition; onset of growth inhibition compared with clinical PKC and MEK inhibitors [1]: faster onset of growth inhibition; sensitivity of PKCi-resistant cells relative to parental MP41 cells ([2]; FIG. 7B): more sensitive to Compound B than were the parental MP41 cells; growth inhibition of PKCi-resistant and parental cell lines ([2]; both PKCi-resistant and parental MP41, FIG. 7B): strong growth inhibition; sensitivity of cell lines to BRG1/BRM inhibition (growth) ([3]; breast cancer and Ewing's sarcoma cell lines vs other tested cell lines, FIG. 3): more sensitive to BRG1/BRM inhibition than the other tested cell lines; duration of growth inhibition ([3]; breast cancer and Ewing's sarcoma cell lines, day 7): maintained through day 7; growth inhibition in uveal melanoma cell lines [4]: potent growth inhibition
